Laboratory results from patent US12152012B2, “BRAG2 inhibitors and applications thereof” (CENTRE NATIONAL DE LA RECHERCHE SCIENTIFIQUE, priority 2018, dated 2024).

Legend:
[1] = target: T1, EFA6 (Sec7PHCt construct) (Homo sapiens, UniProt A5PKW4); experiment: Nucleotide exchange kinetics on liposomes, activation of myristoylated Arf1; assay type: biochemical; details: 50 μM
T1 construct: human EFA6^Sec7 (527-727) and EFA6^Sec7PHCt (527-1024); made in house
Description: The effect of Bragsin1 on the GEF efficiency of representative human ArfGEFs was evaluated by fluorescence kinetics using highly purified recombinant Arf GTPases and ArfGEFs. In a first series of assays, the Sec7 domains of BIG1, a Golgi ArfGEF, and of ARNO, EFA6a and BRAG2, which function at the plasma membrane, were used. When tested in solution, Bragsin1 had no effect on the activation of Arf1 by any of these Sec7 domains (FIGS. 2a and 14). Separately, we reconstituted the activation of myristoylated Arf1 by the same ArfGEFs on liposomes using ArfGEF constructs that contain a membrane-binding domain (DCB-HUS domain for BIG1, PH domains for the other GEFs). […] BRAG2 activates several Arf isoforms, including the plasma membrane-located Arf6 isoform. […] Bragsin1 and Bragsin2 have the same IC50 towards BRAG2 ([…]) according to dose-response analysis, confirming that Bragsin1 and Bragsin2 can be used interchangeably (FIG. 2d). The specific inhibition of BRAG2 by Bragsin in vitro predicts that BRAG2 silencing by siRNA should yield the same phenotype as treatment by the small molecule. Silencing of BRAG2 induced the redistribution of TGN46 into tubular or punctate structures, which phenocopied the effects induced by Bragsin (FIGS. 2e, 17 and 18). […] Silencing of ARNO, which is located at the plasma membrane, had no effect on TGN46 distribution. Overexpression of BRAG2-mCherry rescued the dispersion of the TGN46 structure induced by Bragsin, which is consistent with the silencing experiments (FIG. 2f). Bragsin is a specific inhibitor of the ArfGEF BRAG2 in vitro and in cells according to these experiments. These oexperiments identify a mechanism of inhibition that requires the membrane to manifests itself.
Bovine Δ17Arf1 and human Δ13Arf6, full-length myristoylated Arf1 and Arf6, human BRAG2^Sec7 (390-594) and BRAG2^Sec7PH (390-811), human EFA6^Sec7 (527-727) and EFA6^Sec7PHCt (527-1024), ARNO^Sec7 (50-256), BIG1^Sec7 (691-889), BIG1^DcbHusSec7 (2-888) and ARNO^Sec7PH (50-399) were expressed and purified as in (Benabdi, S. et al. Family-wide Analysis of the Inhibition of Arf Guanine Nucleotide Exchange Factors with Small Molecules: Evidence of Unique Inhibitory Profiles. Biochemistry 56, 5125-5133 (2017)) and references therein. BRAG2^Sec7PH mutants were purified as the wild type protein. Purification of human full-length Rac1 carrying a 6xHis tag in C-terminus and human TRIO^DH1PH1 (1232-1550) was described in (Peurois, F. et al. Characterization of the activation of small GTPases by their GEFs on membranes using artificial membrane tethering. Biochem J 474, 1259-1272 (2017)).
Lipids (of natural origin) were from Avanti Polar Lipids, except NBD-PE from Sigma. Liposomes were prepared as described in (Aizel, K. et al. Integrated conformational and lipid-sensing regulation of endosomal ArfGEF BRAG2. PLOS Biol 11, e1001652 (2013)) and extruded at 0.2 μm. For the Arf GEF specificity studies, liposomes contained 48% phosphatidylcholine (PC), 20% phosphatidylethanolamine (PE), 30% phosphatidylserine (PS) and 2% phosphatidylinositol-4,5-bisphosphate (PIP2). For Rac activation assay, liposomes contained 43% PC, 20% PE, 10% PS, 20% cholesterol, 2% PIP2, 5% NiNTA lipids and 0.2% NBD-PE. To exclude aggregation or disruption of the liposomes, their size distribution was controlled before and after experiments by dynamic light scattering as described in (Benabdi, S. et al. Biochemistry 56, 5125-5133 (2017)). Dose-response and flotation assays were carried out with liposomes containing 37.9% PC, 20% PE, 20% PS, 2% PIP2, 20% cholesterol and 0.1% NBD-PE. Flotation assays were carried out as in 18.
Nucleotide exchange kinetics were monitored by tryptophan fluorescence with excitation/emission wavelengths of 292/340 nm using a Cary Eclipse fluorimeter (Varian) at 37° C. and under continuous stirring as described in ^50,51. […]

[2] = tested on: EEA1 (early endosome marker) in Hela cells; experiment: Immunostaining and confocal microscopy of Hela cells; assay type: cell-based, human; details: 50 μM, 30 min
Description: FIG. 1. Bragsin2 affects Arf pathways in cells • a. Chemical structures of Bragsin1 and Bragsin2 and derivatives used in this study. Chemical synthesis and structural characterization of the compounds are described in example 6. • b. Bragsin2 disperses the TGN46 and GM130 markers. HeLa cells were treated with either DMSO (0.25%) or Bragsin2 (50 μM) for 30 min, immunostained for TGN46, GM130 or EEA1 (green channel) and analysed by confocal microscopy. Dispersion of GM130 and TGN46 by Bragsin2 is reversible. Hela cells were treated as in FIG. 1a and were incubated for an additional 30 min in fresh medium (wash panel) prior to immunostaining and confocal microscopy analysis. Expression of Arf-mCherry constructs carrying an activating mutation rescues the effect of Bragsin2. Hela cells were transfected with constitutively active Q/L mutants of Arf-mCherry. Note the difference between non-transfected cells (white asterisk) and transfected cells. Scale bars, 10 μm.
Hela cells were grown in Dulbecco's modified Eagle's medium supplemented with Glutamax™ and 10% fetal bovine serum (Invitrogen). For immunofluorescence studies, cells were grown on Labtek glass slides (Nunc) and transfected for 18 to 24 h using Lipofectamine 2000 (Invitrogen), according to the supplier's instructions. When specified, cells were treated with the indicated concentration of small molecule or corresponding volume of vehicle (DMSO) in growth medium for 30 min at 37° C.
Immunostaining procedure was as described in (Viaud, J. et al. Structure-based discovery of an inhibitor of Arf activation by Sec7 domains through targeting of protein-protein complexes. Proc Natl Acad Sci USA 104, 10370-5 (2007)) except that secondary antibody incubation was performed for 1h using Alexa 488-conjugated goat anti-mouse (1:600) or donkey anti-sheep (1:500) IgG and Alexa 647-conjugated phalloidin (1:100). Anti-GM130 was used at dilution 1:200. Images were bidirectionally recorded using an inverted Leica TCS SP8 laser-scanning confocal microscope with a 100× (N. A. 1.40) oil objective (HCX APO, Leica). Fluorochromes were detected sequentially using excitation laser lines at 488 nm (Alexa 488), 594 nm (mCherry) and 633 nm (Alexa 647). Stacks were generated using a z-step of 0.5 μm and processed using Fiji/ImageJ (Schindelin, J. et al. Fiji: an open-source platform for biological-image analysis. Nat Methods 9, 676-82 (2012)). Images are representative of at least two independent experiments.

T1 sequence (A5PKW4 527-1024): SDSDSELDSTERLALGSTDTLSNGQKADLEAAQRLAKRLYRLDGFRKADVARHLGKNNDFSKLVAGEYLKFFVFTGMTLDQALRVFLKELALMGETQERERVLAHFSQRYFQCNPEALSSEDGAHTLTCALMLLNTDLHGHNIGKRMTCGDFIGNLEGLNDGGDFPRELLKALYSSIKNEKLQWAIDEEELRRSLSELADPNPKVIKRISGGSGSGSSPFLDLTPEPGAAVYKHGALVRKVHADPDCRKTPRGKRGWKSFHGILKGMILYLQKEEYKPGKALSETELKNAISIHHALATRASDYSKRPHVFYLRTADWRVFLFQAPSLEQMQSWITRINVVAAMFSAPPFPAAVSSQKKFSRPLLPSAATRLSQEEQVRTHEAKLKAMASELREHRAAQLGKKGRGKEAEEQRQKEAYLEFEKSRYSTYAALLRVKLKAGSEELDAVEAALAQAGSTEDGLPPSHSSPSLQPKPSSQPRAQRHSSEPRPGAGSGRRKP

| Effect on ArfGEF activity on liposomes [1] | Structure (SMILES) | Effect on early endosome marker EEA1 [2] |
| --- | --- | --- |
| no effect | Cc1ccc2oc(C(F)(F)F)cc(=O)c2c1[N+](=O)[O-] [Bragsin1, 6-methyl-5-nitro-2-(trifluoromethyl)-4H-chromen-4-one] |  |
|  | COc1ccc2oc(C(F)(F)F)cc(=O)c2c1[N+](=O)[O-] [Bragsin2, 6-methoxy-5-nitro-2-(trifluoromethyl)-4H-chromen-4-one] | no effect |
